Test results reported in publication PMC11173846, “Comparison of HPLC, HPTLC, and In Silico Lipophilicity Parameters Determined for 5-Heterocyclic 2-(2,4-Dihydroxyphenyl)-1,3,4-thiadiazoles” (Molecules, 2024).

Test: Chromatographic lipophilicity overall (HPTLC and HPLC systems), structure-retention comparison and PCA
Type: physicochemical
Conditions: for lipophilicity by first principal component score (average value of lipophilicity, in words): PCA of experimental and computational data, PC1; for lipophilicity by heterocyclic substituent (chromatographic parameters, in words): Tables S1–S7, all chromatographic systems
Experimental: Chromatographic studies were carried out using both HPTLC and HPLC methods under the isocratic conditions. In all systems, there were stated linear relationships between the RM (HPTLC) or log kw (HPLC) values and the organic modifier content (ϕ) in the mobile phase. This is described by the Soczewinski–Wachtmeister equation [31] as follows:RM = RMw + bϕ(1) log k = log kw + bϕ(2) where ϕ expresses the volume fraction of the organic solvent in the mobile phase; RMw (log kw) corresponds to 0% of the organic solvent content in the mobile phase; b represents the slope of a regression line.
The retention behavior of the compounds was analyzed by HPTLC using the octyl C8 and octadecyl C18 stationary phases and MeOH, ACN, acetone, and dioxane as organic modifiers (Supplementary Materials Tables S1–S4). The chromatographic evaluation of using the HPLC methods was made in the systems, with C8/MeOH, C8/ACN, and C18/ACN analogous to HPTLC (Tables S5 and S7). The measurements using the IAM and Chol stationary phases and the buffered mobile phases (pH = 7.4) were additionally used (Supplementary Materials Tables S5–S7).
The lipophilicity parameters for the Et derivatives were usually higher than those for chlorine ones (1 and 2; 7 and 8). This was an expected effect, taking into account the hydrophobicity parameter π (Hansch–Fujita π constant) for these substituents. Deviations from this order were sometimes observed. […] (Supplementary Materials Tables S1–S7).
To investigate the similarity between the investigated compounds, the obtained experimental and computational data were analyzed using scaled principal component analysis.
The most important conclusion from the PCA analysis is that all coefficients, both computational and experimental ones, were highly redundant. In total, 85% of the information was common for them and could be collected together to form the first principal component. The score could be interpreted as an average value of lipophilicity.

| SMILES | lipophilicity by first principal component score (average value of lipophilicity, in words) | lipophilicity by heterocyclic substituent (chromatographic parameters, in words) |
| --- | --- | --- |
| CCc1cc(-c2nnc(-c3cc4cc(Br)ccc4n3C)s2)c(O)cc1O [Compound 5] | highest lipophilicity | – |
| Oc1cc(O)c(-c2nnc(-c3ccco3)s2)cc1Cl [Compound 1] | – | low lipophilicity |
| Oc1ccc(-c2nnc(-c3ccc4nonc4c3)s2)c(O)c1 [Compound 6] | – | low lipophilicity |
| Oc1ccc(-c2nnc(-c3ccn4c(Br)cnc4c3)s2)c(O)c1 [Compound 9] | lowest lipophilicity | – |
| Oc1ccc(-c2nnc(-c3ccc(N4CCOCC4)nc3)s2)c(O)c1 [Compound 13] | – | lowest lipophilicity |
